Consider 1 molecule from ChEMBL document CHEMBL5543140 (J Med Chem, 2024).

Data set [1] addresses Alpha-2B adrenergic receptor (Homo sapiens, UniProt P18089). Put plainly: biochemical. It is filed as cell-based, CHO-K1.
The subject of data set [2] is Hippocampus. The data set can be described thus: Induction of neuroplasticity in C57BL/6J mouse assessed as increase in CREB1 mRNA expression in brain hippocampus at 3 mg/kg, sc single dose by RT-PCR analysis. The class given is functional, organism-based.
Data set [3] addresses 5-hydroxytryptamine receptor 2A (Homo sapiens, UniProt P28223). Put plainly: Agonist activity at human 5-HT2A receptor expressed in HEK293 cells assessed as maximal IP2 production measured after 30 mins incubation by HTRF assay relative to control. The class given is functional, cell-based. To be noted: filed as agonist.
Data set [4] deals with Alpha-2C adrenergic receptor (Homo sapiens, UniProt P18825). The data set can be described thus: biochemical.
Sequence of Alpha-2C adrenergic receptor (P18825 whole entry): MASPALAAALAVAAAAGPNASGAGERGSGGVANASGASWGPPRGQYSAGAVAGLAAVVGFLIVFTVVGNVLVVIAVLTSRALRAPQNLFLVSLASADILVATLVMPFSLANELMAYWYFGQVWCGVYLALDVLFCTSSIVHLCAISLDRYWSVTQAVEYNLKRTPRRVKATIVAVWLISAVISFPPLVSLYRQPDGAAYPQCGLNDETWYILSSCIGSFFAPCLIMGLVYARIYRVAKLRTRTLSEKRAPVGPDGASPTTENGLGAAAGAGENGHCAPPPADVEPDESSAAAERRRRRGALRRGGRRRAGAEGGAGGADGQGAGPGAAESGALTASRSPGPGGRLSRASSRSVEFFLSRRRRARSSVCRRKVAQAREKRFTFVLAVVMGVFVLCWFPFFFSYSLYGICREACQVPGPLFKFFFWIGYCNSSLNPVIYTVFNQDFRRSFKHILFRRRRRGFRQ
A short description of data set [5]: Drug excretion in Wistar rat urine at 5 mg/kg, po measured upto 48 hrs. The class given is ADME, organism-based. To be noted: read-out: Drug excretion.
A short description of data set [6]: Half life in beagle dog at 2 mg/kg, po measured upto 24 hrs. The class given is ADME, organism-based, Canis lupus familiaris. The note with it: in vivo.
The target in data set [7] is Alpha-2A adrenergic receptor (Homo sapiens, UniProt P08913). Put plainly: Agonist activity at human recombinant adrenergic alpha-2A receptor expressed in CHO-K1 cells co-transfected with 22F-Glosensor assessed as inhibition of cAMP production measured after 30 mins incubation by Microbeta2Micro-plate counter analysis. It is filed as functional, cell-based. (In general: Cyclic AMP is a second messenger, typically raised through Gs and lowered through Gi signalling.)
Sequence of Alpha-2A adrenergic receptor (P08913 whole entry): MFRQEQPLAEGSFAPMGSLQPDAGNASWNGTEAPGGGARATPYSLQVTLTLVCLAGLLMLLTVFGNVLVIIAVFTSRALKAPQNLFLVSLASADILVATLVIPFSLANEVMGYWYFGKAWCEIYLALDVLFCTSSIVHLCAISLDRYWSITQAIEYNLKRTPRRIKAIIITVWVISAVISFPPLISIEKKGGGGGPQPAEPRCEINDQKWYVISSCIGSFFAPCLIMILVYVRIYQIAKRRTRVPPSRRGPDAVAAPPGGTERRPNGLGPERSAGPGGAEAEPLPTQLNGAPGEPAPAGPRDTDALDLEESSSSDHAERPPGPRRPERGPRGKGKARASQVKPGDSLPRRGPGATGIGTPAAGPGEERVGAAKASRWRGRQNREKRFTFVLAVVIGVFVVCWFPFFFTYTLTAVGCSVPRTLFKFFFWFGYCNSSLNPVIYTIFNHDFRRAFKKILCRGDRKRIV

Data set [8] concerns the target 5-hydroxytryptamine receptor 6 (Homo sapiens, UniProt P50406). Put plainly: Displacement of [3H]LSD from 5-HT6 receptor (unknown origin) assessed as inhibition binding. (In general: In a radioligand displacement assay an active substance lowers the binding of a labelled ligand.)
Data set [9] has as its target 5-hydroxytryptamine receptor 2B (Homo sapiens, UniProt P41595). Put plainly: Agonist activity at human 5-HT2B receptor expressed in CHO cells assessed as IP2 production measured after 30 mins incubation by HTRF assay. The class given is functional, cell-based. In general terms: Time-resolved FRET reads energy transfer from a long-lived donor to a nearby acceptor.
Data set [10] relates to Hippocampus. The data set can be described thus: Induction of neuroplasticity in C57BL/6J mouse assessed as increase in EGR2 mRNA expression in brain hippocampus at 0.3 mg/kg, sc single dose by RT-PCR analysis. It is filed as functional, organism-based.
Data set [11] is described as follows: Ex vivo binding in C57BL/6J mouse brain frontal cortex assessed as specific binding [3H]Cimbi-36 at 1 mg/kg, sc measured after 220 mins by liquid scintillation counting analysis (reference value: 1092 +/- 53). It is filed as functional. To be noted: 3.667 h.
Data set [12] is described as follows: Metabolic stability in human hepatocytes assessed as half life at 10 uM. The class given is ADME, cell-based, Hepatocyte.
A short description of data set [13]: Clearance in beagle dog at 0.4 mg/kg, iv measured upto 24 hrs. To be noted: in vivo. The class given is ADME, organism-based, Canis lupus familiaris.
In data set [14] the target is T1, 5-hydroxytryptamine receptor 2C (Homo sapiens, UniProt P28335).
T1 sequence (P28335 whole entry): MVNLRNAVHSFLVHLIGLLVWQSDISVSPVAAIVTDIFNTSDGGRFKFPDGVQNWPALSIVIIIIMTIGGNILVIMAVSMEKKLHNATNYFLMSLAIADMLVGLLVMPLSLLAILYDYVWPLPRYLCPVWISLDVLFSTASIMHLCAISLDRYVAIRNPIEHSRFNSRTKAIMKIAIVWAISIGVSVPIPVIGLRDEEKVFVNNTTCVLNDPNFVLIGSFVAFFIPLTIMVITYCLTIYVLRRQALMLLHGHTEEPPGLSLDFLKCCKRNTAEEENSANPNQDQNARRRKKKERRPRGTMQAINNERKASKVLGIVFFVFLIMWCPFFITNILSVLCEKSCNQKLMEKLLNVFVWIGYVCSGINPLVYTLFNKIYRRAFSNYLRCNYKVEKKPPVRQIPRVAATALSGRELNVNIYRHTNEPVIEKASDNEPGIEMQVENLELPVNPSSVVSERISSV
Put plainly: Binding affinity to human [125I]LSD-labeled 5-HT2C receptor expressed in HEK293 cell membrane incubated for 60 mins. It is filed as cell membranes.

The nature of data set [15]: Initial plasma concentration in Wistar rat at 1 mg/kg, iv measured upto 48 hrs. It is filed as ADME, organism-based.
A short description of data set [16]: AUClast in male Sprague-Dawley rat brain at 1 mg/kg, iv measured upto 8 hrs by LC-MS/MS analysis. It is filed as ADME, organism-based.
The nature of data set [17]: Drug metabolism in rat hepatocytes assessed as formation of sulfoxide with N-acetylation/0-glucuronidations metabolites at 10 uM by HRAMS analysis. The class given is ADME, cell-based, Hepatocyte.
A short description of data set [18]: Half life in Wistar rat plasma at 1 mg/kg, iv measured upto 48 hrs. It is filed as ADME, organism-based.
Data set [19] can be described thus: Half life in male Sprague-Dawley rat CSF at 1 mg/kg, iv measured upto 8 hrs by LC-MS/MS analysis. The class given is ADME, organism-based, Cerebrospinal fluid.
The species entered for data set [20] is Homo sapiens. Put plainly: Selectivity ratio, ratio of Ki for human 5-HT2B receptor to human 5-HT2C receptor.
Data set [21] addresses Voltage-dependent L-type calcium channel subunit alpha-1C (Homo sapiens, UniProt Q13936). Put plainly: Binding affinity to human Calcium channel L-type (verapamil site) at 10 uM measured after 180 mins by [3H]D888-Radiometric assay relative to control.
Data set [22] is described as follows: Ex vivo binding in C57BL/6J mouse brain frontal cortex assessed as inhibition of [3H]Cimbi-36 binding at 1 mg/kg, sc measured after 300 mins by liquid scintillation counting analysis (reference value: 0%). The class given is functional. The note with it: 5 h.

A word on the Ki: it is the equilibrium dissociation constant of an inhibitor or competing ligand from its target. Usually Emax stands for the greatest response seen or fitted, relative to the assay's reference. For orientation: half-life means the time in which the quantity being followed falls by half. In general, EC50 refers to the concentration giving half of the maximal effect. One may read the clearance as the rate of elimination divided by the concentration. A higher clearance goes with efficient removal. As usually defined, the AUC(0-t) is the area under the concentration-time curve up to a stated or last time point. Higher therefore signals high exposure. For orientation: inhibition in vivo means the share of the control response that was lost under treatment.

SMILES strings stand for the structures. The source made the active and inactive calls. No cut-off for these calls is given here.

Sequence of 5-hydroxytryptamine receptor 6 (P50406 whole entry): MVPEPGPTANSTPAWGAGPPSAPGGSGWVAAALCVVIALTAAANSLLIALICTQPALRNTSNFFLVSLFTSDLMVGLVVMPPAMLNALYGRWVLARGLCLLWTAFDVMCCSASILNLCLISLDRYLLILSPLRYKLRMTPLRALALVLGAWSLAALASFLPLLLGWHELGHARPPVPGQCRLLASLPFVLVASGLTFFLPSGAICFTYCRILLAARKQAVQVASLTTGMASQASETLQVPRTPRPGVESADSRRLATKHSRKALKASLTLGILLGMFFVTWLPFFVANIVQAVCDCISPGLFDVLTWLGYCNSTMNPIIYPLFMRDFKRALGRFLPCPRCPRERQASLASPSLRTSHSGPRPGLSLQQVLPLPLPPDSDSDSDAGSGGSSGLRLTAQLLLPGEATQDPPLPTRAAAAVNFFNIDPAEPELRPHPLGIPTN
Sequence of Voltage-dependent L-type calcium channel subunit alpha-1C (Q13936 whole entry): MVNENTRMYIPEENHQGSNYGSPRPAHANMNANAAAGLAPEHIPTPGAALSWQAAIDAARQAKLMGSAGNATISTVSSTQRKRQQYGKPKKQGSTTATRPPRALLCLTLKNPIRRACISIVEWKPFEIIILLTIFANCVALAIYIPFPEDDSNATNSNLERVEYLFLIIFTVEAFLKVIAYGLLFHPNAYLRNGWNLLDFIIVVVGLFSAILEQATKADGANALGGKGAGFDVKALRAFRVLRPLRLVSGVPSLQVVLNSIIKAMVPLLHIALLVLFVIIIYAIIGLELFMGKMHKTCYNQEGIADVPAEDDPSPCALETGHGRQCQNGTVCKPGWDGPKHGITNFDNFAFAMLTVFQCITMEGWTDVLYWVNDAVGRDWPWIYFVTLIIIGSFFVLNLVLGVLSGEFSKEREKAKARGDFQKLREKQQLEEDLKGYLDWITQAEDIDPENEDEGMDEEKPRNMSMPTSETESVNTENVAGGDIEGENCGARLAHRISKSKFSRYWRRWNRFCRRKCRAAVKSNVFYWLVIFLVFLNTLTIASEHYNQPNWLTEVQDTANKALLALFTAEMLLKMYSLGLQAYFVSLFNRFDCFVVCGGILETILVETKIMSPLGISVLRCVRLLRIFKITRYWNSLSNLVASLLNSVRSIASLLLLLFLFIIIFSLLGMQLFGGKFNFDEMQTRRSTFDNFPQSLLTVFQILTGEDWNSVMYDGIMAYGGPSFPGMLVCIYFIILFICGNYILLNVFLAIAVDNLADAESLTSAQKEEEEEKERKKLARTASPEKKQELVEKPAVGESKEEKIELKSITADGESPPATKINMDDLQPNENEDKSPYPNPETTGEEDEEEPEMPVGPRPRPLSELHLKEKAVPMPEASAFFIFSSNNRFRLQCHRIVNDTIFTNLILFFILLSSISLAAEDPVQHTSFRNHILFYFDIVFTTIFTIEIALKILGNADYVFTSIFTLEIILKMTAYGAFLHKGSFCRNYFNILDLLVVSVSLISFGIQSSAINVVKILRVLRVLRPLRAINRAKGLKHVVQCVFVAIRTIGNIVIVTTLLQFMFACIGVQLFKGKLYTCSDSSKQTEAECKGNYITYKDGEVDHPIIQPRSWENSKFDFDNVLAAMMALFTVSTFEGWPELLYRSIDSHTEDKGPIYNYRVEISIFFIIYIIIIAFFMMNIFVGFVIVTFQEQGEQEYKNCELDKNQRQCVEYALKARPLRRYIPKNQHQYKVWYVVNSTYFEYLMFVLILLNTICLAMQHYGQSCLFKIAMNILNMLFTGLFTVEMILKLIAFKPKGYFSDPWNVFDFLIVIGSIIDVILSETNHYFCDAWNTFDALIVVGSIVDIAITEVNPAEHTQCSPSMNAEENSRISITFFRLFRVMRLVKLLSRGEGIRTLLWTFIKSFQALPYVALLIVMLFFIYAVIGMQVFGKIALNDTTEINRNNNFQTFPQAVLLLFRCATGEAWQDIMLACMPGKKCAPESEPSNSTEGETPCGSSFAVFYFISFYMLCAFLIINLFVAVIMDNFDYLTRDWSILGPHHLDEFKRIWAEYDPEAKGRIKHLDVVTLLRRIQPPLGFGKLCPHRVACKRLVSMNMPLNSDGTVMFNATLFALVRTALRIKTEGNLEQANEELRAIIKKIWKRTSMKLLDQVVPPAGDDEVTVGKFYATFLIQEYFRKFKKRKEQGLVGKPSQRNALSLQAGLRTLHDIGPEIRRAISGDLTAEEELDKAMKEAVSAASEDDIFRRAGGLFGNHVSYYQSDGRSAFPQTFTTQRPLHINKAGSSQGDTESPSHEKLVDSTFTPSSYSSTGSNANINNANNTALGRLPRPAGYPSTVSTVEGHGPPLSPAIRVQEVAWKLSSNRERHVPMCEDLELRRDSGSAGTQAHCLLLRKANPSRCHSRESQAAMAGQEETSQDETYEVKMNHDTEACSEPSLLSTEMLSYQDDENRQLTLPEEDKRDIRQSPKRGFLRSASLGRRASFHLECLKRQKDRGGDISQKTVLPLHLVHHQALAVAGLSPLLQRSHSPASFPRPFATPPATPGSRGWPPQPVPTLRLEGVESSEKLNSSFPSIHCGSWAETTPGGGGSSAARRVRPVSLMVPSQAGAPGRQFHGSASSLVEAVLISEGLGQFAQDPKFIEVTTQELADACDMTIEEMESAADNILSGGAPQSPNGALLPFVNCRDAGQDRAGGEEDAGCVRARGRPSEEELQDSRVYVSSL
Sequence of 5-hydroxytryptamine receptor 2A (P28223 whole entry): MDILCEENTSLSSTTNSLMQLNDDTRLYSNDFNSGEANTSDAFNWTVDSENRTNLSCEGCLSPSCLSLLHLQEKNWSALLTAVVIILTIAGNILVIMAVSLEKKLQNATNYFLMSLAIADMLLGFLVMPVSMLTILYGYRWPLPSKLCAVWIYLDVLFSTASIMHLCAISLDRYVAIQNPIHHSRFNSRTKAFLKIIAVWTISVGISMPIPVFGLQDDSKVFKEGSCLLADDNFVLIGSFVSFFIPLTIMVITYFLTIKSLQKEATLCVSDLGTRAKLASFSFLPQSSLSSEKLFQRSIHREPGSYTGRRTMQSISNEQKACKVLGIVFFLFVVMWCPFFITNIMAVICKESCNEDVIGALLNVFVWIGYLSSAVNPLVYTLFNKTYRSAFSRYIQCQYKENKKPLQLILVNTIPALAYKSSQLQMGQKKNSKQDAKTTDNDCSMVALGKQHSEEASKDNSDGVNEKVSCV
Sequence of 5-hydroxytryptamine receptor 2B (P41595 whole entry): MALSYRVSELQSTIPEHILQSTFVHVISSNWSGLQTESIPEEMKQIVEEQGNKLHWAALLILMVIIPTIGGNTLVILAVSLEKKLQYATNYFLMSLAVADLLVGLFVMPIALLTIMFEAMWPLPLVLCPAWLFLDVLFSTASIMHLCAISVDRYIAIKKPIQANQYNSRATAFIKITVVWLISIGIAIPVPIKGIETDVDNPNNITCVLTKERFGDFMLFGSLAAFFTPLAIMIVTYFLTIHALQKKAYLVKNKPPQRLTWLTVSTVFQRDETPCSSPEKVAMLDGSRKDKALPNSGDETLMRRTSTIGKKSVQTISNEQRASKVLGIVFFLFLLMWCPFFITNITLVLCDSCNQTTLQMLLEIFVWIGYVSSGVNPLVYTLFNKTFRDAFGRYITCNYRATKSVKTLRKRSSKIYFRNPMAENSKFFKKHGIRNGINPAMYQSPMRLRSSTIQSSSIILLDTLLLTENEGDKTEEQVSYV
Sequence of Alpha-2B adrenergic receptor (P18089 whole entry): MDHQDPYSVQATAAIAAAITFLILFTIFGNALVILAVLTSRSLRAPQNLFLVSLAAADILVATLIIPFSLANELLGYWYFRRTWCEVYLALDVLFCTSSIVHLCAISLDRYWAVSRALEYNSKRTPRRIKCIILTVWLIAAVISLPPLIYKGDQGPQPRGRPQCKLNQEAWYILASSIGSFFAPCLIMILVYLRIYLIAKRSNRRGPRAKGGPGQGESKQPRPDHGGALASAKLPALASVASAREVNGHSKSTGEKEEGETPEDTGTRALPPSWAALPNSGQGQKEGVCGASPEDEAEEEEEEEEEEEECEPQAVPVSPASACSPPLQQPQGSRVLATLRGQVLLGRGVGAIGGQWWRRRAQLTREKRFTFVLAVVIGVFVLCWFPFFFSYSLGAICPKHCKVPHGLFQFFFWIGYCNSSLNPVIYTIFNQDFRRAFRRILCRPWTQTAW

Consider `COc1cc([Se]C(F)(F)F)c(OC)cc1CCN.Cl`, for which the Ki was 1050 nM in data set [1], 108 nM in data set [4], 1300 nM in data set [8] and 6.7 nM in data set [14]. Further, the result in data set [2] and in [10] was inactive. Further, the Emax in data set [3] is 87%. Moreover, the dose excreted at 48 h in data set [5] amounted to 0.3%. Also, the half-life is 6.78 h in [6], 0.78 h in [18] and 1.26 h in [19]. In addition, the figures for the EC50 in data set [7] and in [9] were 126 nM and 88 nM, respectively. Also, the Activity was determined as 796 in data set [11] and 85% in data set [21]. The half-life at 10 µM in [12] is 16 h. In data set [13], this molecule showed a clearance of 15.8 mL/min/kg. Besides, the C0 at 48 h in data set [15] amounted to 67.2 ng/mL. This molecule had an AUC(0-t) at 8 h in data set [16] of 3220 ng·h/mL. Moreover, the Drug metabolism entry in data set [17] is “Metabolite_Detected”. Besides, the Ratio Ki in data set [20] came to 12. Further, the inhibition in vivo at 1 mg/kg in data set [22] amounted to 22%.
